In assay [1] the target is T1, E. coli peptide deformylase (PDFEc) (Escherichia coli, UniProt P0A6K3). In kind it is biochemical. To be noted: for Initial rate: AMT 500 µM; for remaining activity at 500 µM: read-out: % of control, AMT 500 µM.
Assay [2] deals with T1, E. coli peptide deformylase (PDFEc). In words: Slow-binding inhibition of PDFEc, kobs as a function of inhibitor concentration. In kind it is biochemical.
Setting [3] is: solvent dimethylformamide, 1 week post.
The mark [4] stands for this setting: solvent ethanol, more than 2 days incubation.

Read-outs that look alike come from different tables or passages of the source.

T1 sequence (P0A6K3 whole entry): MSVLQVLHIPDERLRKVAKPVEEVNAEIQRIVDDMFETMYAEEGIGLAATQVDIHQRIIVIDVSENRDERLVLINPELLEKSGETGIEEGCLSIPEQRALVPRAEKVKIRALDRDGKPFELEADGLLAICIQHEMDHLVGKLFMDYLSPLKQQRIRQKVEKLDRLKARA

Take `Nc1nnc(S)s1` [AMT, 2-amino-5-mercapto-1,3,4-thiadiazole]: in assay [1] (500 µM AMT incubated in DMF for 30 min), the “initial rate of the enzyme catalyzed reaction versus control” value is “barely lower than that of the control”. Also, the Initial rate is 16.3 mOD min^−1 in assay [1] (solvent acetonitrile, more than 2 days incubation); 7.9 mOD min^−1 in assay [1] (setting [3]); 17.0 mOD min^−1 in assay [1] (solvent dimethylformamide, tested immediately); 15.9 mOD min^−1 in assay [1] (solvent dimethylsulfoxide, more than 2 days incubation); 16.9 mOD min^−1 in assay [1] (setting [4]). In addition, the “inhibitory effect on PDFEc” value in assay [1] (AMT freshly prepared in DMF, or dissolved in any other solvent and aged at 25 °C for any length of time) is “No inhibitory effect”. The “inhibition of PDFEc” value in assay [1] (AMT incubated with 0.06% H2O2 in buffer) is “no inhibition”. For the same compound, the remaining activity at 500 µM in assay [1] (setting [3]) turned out to be 47%; in assay [1] (setting [4]) it was 100%. The “enhancement of apparent binding affinity by the slow-binding step (Ki / Ki^*)” value in assay [2] is recorded as “about 30 fold”.
